One assay deals with T1, Human BACE1 (Homo sapiens, UniProt P56817).
T1 construct: the soluble part of the human β-Secretase1 (AA1-AA460) was cloned using the BACE1(1-460)-(AVT)-Fc-pGEN-IRES-neo mammalian expression vector; AVT linker (C); made in house
Put plainly: Diluted TR-FRET assay. Format: biochemical. As to conditions: 50 times less enzyme, 6.5 h reaction time at r.t.; read-out: IC50 BACE1 (dil. TR-FRET). Summed up: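 Human BACE1 (residues 1-460) was fused to an IgG1 Fc affinity tag and stably expressed in HEK 293 cells. Using a Multidrop Combi, 7 μL enzyme was added to 0.8 μL compound in dimethylsulphoxide and incubated 10 minutes. Reactions were stopped with 5.5 μL NaOAC Stop solution (pH 9), and TR-FRET fluorescence was read on a Pherastar HTRF module.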
Background: Time-resolved FRET reads energy transfer from a long-lived donor to a nearby acceptor.

The next assay has as its target T2, Human BACE2 (Homo sapiens, UniProt Q9Y5Z0).
T2 construct: the soluble part of the human β-Secretase2 (AA1-AA473) was cloned using BACE2(1-473)-(AVT)-Fc-pDEST12.2 mammalian expression vector; AVT linker (C); made in house
T2 sequence (Q9Y5Z0 21-473): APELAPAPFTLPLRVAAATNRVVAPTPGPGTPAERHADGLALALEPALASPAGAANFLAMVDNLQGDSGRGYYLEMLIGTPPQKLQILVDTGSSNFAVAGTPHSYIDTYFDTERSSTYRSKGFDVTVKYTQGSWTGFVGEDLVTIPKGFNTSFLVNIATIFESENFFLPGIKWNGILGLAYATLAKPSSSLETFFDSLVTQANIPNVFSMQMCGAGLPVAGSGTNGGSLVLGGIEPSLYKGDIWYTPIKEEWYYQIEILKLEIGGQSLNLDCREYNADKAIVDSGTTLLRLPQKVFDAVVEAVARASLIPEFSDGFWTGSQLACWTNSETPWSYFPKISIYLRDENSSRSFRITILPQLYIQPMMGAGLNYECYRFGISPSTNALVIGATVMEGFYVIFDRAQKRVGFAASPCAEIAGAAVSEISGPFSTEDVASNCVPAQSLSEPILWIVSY
Put plainly: TR-FRET assay. Format: biochemical. The settings on record: enzyme 2.7 μg/mL, substrate 100 nM, pH4.5.

A further assay deals with SH-SY5Y cells. Nature of the assay: sAPPβ release assay.
[1] abbreviates: Homo sapiens, SH-SY5Y, read-out: IC50 Cell (sAPPβ release, nM), SH-SY5Y cells, compounds incubated 16-17 h.

SMILES strings stand for the structures. Where two headings read alike, the source gives them in different places.

Experimental findings from US10053453B2, “Compounds and their use as BACE inhibitors” (AstraZeneca AB, priority 2014, dated 2018) are described below.

T1 sequence (P56817 22-460): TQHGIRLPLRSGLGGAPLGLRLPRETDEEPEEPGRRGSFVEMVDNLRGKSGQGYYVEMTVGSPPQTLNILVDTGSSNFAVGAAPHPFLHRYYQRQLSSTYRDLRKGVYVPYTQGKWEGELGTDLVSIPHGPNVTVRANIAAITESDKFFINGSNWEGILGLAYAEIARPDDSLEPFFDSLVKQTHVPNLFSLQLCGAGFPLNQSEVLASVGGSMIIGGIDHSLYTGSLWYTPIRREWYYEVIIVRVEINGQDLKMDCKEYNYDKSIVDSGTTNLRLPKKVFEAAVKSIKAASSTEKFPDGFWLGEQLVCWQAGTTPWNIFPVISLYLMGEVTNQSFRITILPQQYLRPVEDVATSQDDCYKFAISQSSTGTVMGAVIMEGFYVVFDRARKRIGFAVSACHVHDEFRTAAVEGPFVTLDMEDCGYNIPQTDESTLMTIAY

For the molecule `CO[C@H]1CC[C@]2(CC1)Cc1ccccc1C21COC(N)=N1` (stereo partly drawn) [Compound 64, (1r,4r)-4-methoxy-3′H,5″H-dispiro[cyclohexane-1,2′-indene-1′,4″-oxazol]-2″-amine], the results for the IC50 on Human BACE1, against Human BACE2 and with SH-SY5Y cells (setting [1]) were greater than 5000 nM, greater than 5000 nM and 307 nM, respectively.
As for `[2H]C1([2H])OC(N)=NC12c1cc(/C(C)=N/OCC)ccc1C[C@]21CC[C@@H](OC)CC1` (stereo partly drawn) [Compound 65, (E)-1-((1r,4r)-2″-amino-4-methoxy-3′H,5″H-dispiro[cyclohexane-1,2′-indene-1′,4″-oxazol]-6′-yl-5″,5″-d2)ethan-1-one O-ethyl oxime], the IC50 on Human BACE1, against Human BACE2 and in the assay on SH-SY5Y cells (setting [1]) was greater than 5000 nM throughout.
For the molecule `[2H]C1([2H])OC(N)=N[C@]12c1cc(-c3cnccn3)ccc1C[C@]21CC[C@@H](OC)[C@H](C)C1` [Compound 69, (1R,1′R,3R,4R)-4-methoxy-3-methyl-6′-(pyrazin-2-yl)-3′H,5″H-dispiro[cyclohexane-1,2′-indene-1′,4″-oxazol]-5″,5″-d2-2″-amine], the results for the IC50 on Human BACE1, on Human BACE2 and in the assay with SH-SY5Y cells (setting [1]) were 423 nM, greater than 5000 nM and 17 nM, respectively.
With `[2H]C1([2H])OC(N)=N[C@]12c1cc(-c3cncnc3C)ccc1C[C@@]21CC[C@H](OC)[C@@H](C)C1` [Compound 70, (1S,1′R,3S,4S)-4-methoxy-3-methyl-6′-(4-methylpyrimidin-5-yl)-3′H,5″H-dispiro[cyclohexane-1,2′-indene-1′,4″-oxazol]-5″,5″-d2-2″-amine], the results for the IC50 at Human BACE1, against Human BACE2 and with SH-SY5Y cells (setting [1]) were 1130 nM, greater than 5000 nM and 26.6 nM, respectively.
The like results for `[2H]C([2H])([2H])O[C@H]1CC[C@@]2(Cc3ccc(-c4cnccn4)cc3[C@]23N=C(N)OC3([2H])[2H])C[C@@H]1C` [Compound 72, (1S,1′R,3S,4S)-4-(methoxy-d3)-3-methyl-6′-(pyrazin-2-yl)-3′H,5″H-dispiro[cyclohexane-1,2′-indene-1′,4″-oxazol]-5″,5″-d2-2″-amine] were, in that order, 203 nM, greater than 5000 nM and 3.6 nM.
For `[2H]C([2H])([2H])O[C@@H]1CC[C@]2(Cc3ccc(-c4cccnc4)cc3[C@]23N=C(N)OC3([2H])[2H])C[C@H]1C` [Compound 80, (1R,1′R,3R,4R)-4-(methoxy-d3)-3-methyl-6′-(pyridin-3-yl)-3′H,5″H-dispiro[cyclohexane-1,2′-indene-1′,4″-oxazol]-5″,5″-d2-2″-amine], the IC50 – broadly, the point on the concentration scale where inhibition reaches its midpoint – on Human BACE1 is 45 nM; against Human BACE2, 600 nM; in the assay with SH-SY5Y cells (setting [1]), less than 0.16 nM.
As to `[2H]C([2H])([2H])O[C@@H]1CC[C@]2(Cc3ccc(-c4cnccn4)cc3[C@]23N=C(N)OC3([2H])[2H])C[C@H]1C` [Compound 81, (1R,1′R,3R,4R)-4-(methoxy-d3)-3-methyl-6′-(pyrazin-2-yl)-3′H,5″H-dispiro[cyclohexane-1,2′-indene-1′,4″-oxazol]-5″,5″-d2-2″-amine], the half-inhibitory concentration (IC50) was 423 nM at Human BACE1, greater than 5000 nM at Human BACE2 and 17 nM in the assay with SH-SY5Y cells (setting [1]).
The like results for `[2H]C1([2H])CC2(N=C(N)O1)c1cc(-c3cncnc3)ccc1C[C@]21CC[C@@H](OC)CC1` (stereo partly drawn) [Compound 82, (1r,4r)-4-methoxy-6′-(pyrimidin-5-yl)-5″,6″-dihydro-3′H-dispiro[cyclohexane-1,2′-indene-1′,4″-[1,3]oxazin]-6″,6″-d2-2″-amine] were, in that order, 138 nM, 1790 nM and 23 nM.
On to `[2H]C1([2H])CC2(N=C(N)O1)c1cc(-c3cncc(C#N)c3)ccc1C[C@]21CC[C@@H](OC)CC1` (stereo partly drawn) [Compound 84, 5-((1r,4r)-2″-amino-4-methoxy-5″,6″-dihydro-3′H-dispiro[cyclohexane-1,2′-indene-1′,4″-[1,3]oxazin]-6′-yl-6″,6″-d2)nicotinonitrile], for which the IC50 stood at 88.7 nM at Human BACE1, 103 nM on Human BACE2 and 4.8 nM with SH-SY5Y cells (setting [1]).
Regarding `[2H]C1([2H])CC2(N=C(N)O1)c1cc(-c3cc(C#N)cc(OC)c3)ccc1C[C@]21CC[C@@H](OC)CC1` (stereo partly drawn) [Compound 85, 3-((1r,4r)-2″-amino-4-methoxy-5″,6″-dihydro-3′H-dispiro[cyclohexane-1,2′-indene-1′,4″-[1,3]oxazin]-6′-yl-6″,6″-d2)-5-methoxybenzonitrile], the IC50 on Human BACE1 was 31.8 nM; against Human BACE2, 62.5 nM; in the assay on SH-SY5Y cells (setting [1]), 3.5 nM.
On to `COCCCC1(C)Cc2ccc(-c3cc(C#N)cc(OC)c3)cc2C12COC(N)=N2` (stereo not drawn) [Compound 88, 3-(2′-amino-2-(3-methoxypropyl)-2-methyl-2,3-dihydro-5′H-spiro[indene-1,4′-oxazol]-6-yl)-5-methoxybenzonitrile], for which the values for the IC50 at Human BACE1, against Human BACE2 and in the assay with SH-SY5Y cells (setting [1]) were 1950 nM, 340 nM and 450 nM, respectively.
The like results for `[2H]C1([2H])OC(N)=NC12c1cc(-c3cc(C#N)cc(OC)c3)ccc1CC2(C)C1CCOCC1` (stereo not drawn) [Compound 89, 3-(2′-amino-2-methyl-2-(tetrahydro-2H-pyran-4-yl)-2,3-dihydro-5′H-spiro[indene-1,4′-oxazol]-6-yl-5′,5′-d2)-5-methoxybenzonitrile] were, in that order, greater than 5000 nM, greater than 5000 nM and 889 nM.
With `COCCCC1Cc2ccc(-c3cc(C#N)cc(OC)c3)cc2C12COC(N)=N2` (stereo not drawn) [Compound 90, 3-(2′-amino-2-(3-methoxypropyl)-2,3-dihydro-5′H-spiro[indene-1,4′-oxazol]-6-yl)-5-methoxybenzonitrile], the IC50 at Human BACE1 is greater than 5000 nM; on Human BACE2, greater than 5000 nM; in the assay with SH-SY5Y cells (setting [1]), 715 nM.
Turning to `COc1cc(C#N)cc(-c2ccc3c(c2)C2(COC(N)=N2)C(C2CCOCC2)C3)c1` (stereo not drawn) [Compound 91, 3-(2′-Amino-2-(tetrahydro-2H-pyran-4-yl)-2,3-dihydro-5′H-spiro[indene-1,4′-oxazol]-6-yl)-5-methoxybenzonitrile], the IC50 at Human BACE1 came to 4660 nM; on Human BACE2, 701 nM; in the assay with SH-SY5Y cells (setting [1]), 331 nM.
As to `COCCC1Cc2ccc(-c3cc(C#N)cc(OC)c3)cc2C12COC(N)=N2` (stereo not drawn) [Compound 92, 3-(2′-amino-2-(2-methoxyethyl)-2,3-dihydro-5′H-spiro[indene-1,4′-oxazol]-6-yl)-5-methoxybenzonitrile], the 50% inhibitory concentration (IC50) on Human BACE1 was determined as 4160 nM; at Human BACE2, 437 nM; with SH-SY5Y cells (setting [1]) it was 223 nM.
The like results for `COCCC1(C)Cc2ccc(-c3cc(C#N)cc(OC)c3)cc2C12COC(N)=N2` (stereo not drawn) [Compound 93, 3-(2′-amino-2-(2-methoxyethyl)-2-methyl-2,3-dihydro-5′H-spiro[indene-1,4′-oxazol]-6-yl)-5-methoxybenzonitrile] were, in that order, greater than 5000 nM, 1210 nM and 561 nM.
The like results for `NC1=NC2(CO1)c1cc(-c3cncnc3)ccc1CC2C1CCOCC1` (stereo not drawn) [Compound 94, 6-(pyrimidin-5-yl)-2-(tetrahydro-2H-pyran-4-yl)-2,3-dihydro-5′H-spiro[indene-1,4′-oxazol]-2′-amine] were, in that order, 4660 nM, 701 nM and 331 nM.
`CC1(C2CCOCC2)Cc2ccc(-c3cncnc3)cc2C12COC(N)=N2` (stereo not drawn) [Compound 95, 2-methyl-6-(pyrimidin-5-yl)-2-(tetrahydro-2H-pyran-4-yl)-2,3-dihydro-5′H-spiro[indene-1,4′-oxazol]-2′-amine]: the half-maximal inhibitory concentration (IC50) on Human BACE1 is greater than 5000 nM; against Human BACE2, greater than 5000 nM; in the assay on SH-SY5Y cells (read-out: IC50 Cell (sAPPβ release), SH-SY5Y cells, compounds incubated 16-17 h), 889 nM.
Consider `CC1(C2Cc3ccc(-c4cncnc4)cc3C23COC(N)=N3)CCOCC1` (stereo not drawn) [Compound 96, 2-(4-methyltetrahydro-2H-pyran-4-yl)-6-(pyrimidin-5-yl)-2,3-dihydro-5′H-spiro[indene-1,4′-oxazol]-2′-amine], for which the figures for the half-maximal inhibitory concentration (IC50) on Human BACE1, at Human BACE2 and in the assay on SH-SY5Y cells (setting [1]) were greater than 5000 nM, 1790 nM and 205 nM, respectively.
For the molecule `C[C@@H]1CC(C2Cc3ccc(-c4cncnc4)cc3C23COC(N)=N3)C[C@H](C)O1` (stereo partly drawn) [Compound 97, 2-((2R,6S)-2,6-dimethyltetrahydro-2H-pyran-4-yl)-6-(pyrimidin-5-yl)-2,3-dihydro-5′H-spiro[indene-1,4′-oxazol]-2′-amine], the values for the half-inhibitory concentration (IC50) at Human BACE1, at Human BACE2 and in the assay on SH-SY5Y cells (setting [1]) were greater than 5000 nM, greater than 5000 nM and 1420 nM, respectively.
Turning to `NC1=NC2(CO1)c1cc(-c3cncnc3)ccc1CC2N1CCOCC1` (stereo not drawn) [Compound 98, 2-morpholino-6-(pyrimidin-5-yl)-2,3-dihydro-5′H-spiro[indene-1,4′-oxazol]-2′-amine], the 50% inhibitory concentration (IC50) at Human BACE1 is greater than 5000 nM; on Human BACE2 it was greater than 1580 nM; in the assay with SH-SY5Y cells (Homo sapiens, SH-SY5Y, read-out: IC50 Cell (sAPPβ release, nM)), 1840 nM.
